# Values quoted from earlier work as cited in paper PMC11259557 (Cancer Medicine, 2024).
# Read-outs that look alike come from different tables or passages of the source.
# How the values were obtained:
# [1] = design: method as in PMID 26337806, PMID 27196567
compound,measurement,setting,value
CC(C)C[C@H](NC(=O)[C@@H](NC(=O)c1cccc(-c2ccccc2)n1)[C@@H](C)O)B(O)O [delanzomib],incidence of grade ≥3 diarrhea,,19%
same,incidence of peripheral neuropathy,,21%
CC(C)C[C@H](NC(=O)[C@H](CCc1ccccc1)NC(=O)CN1CCOCC1)C(=O)N[C@@H](Cc1ccccc1)C(=O)N[C@@H](CC(C)C)C(=O)[C@@]1(C)CO1 [carfilzomib],DCR,multiple myeloma; phase I trial,39%
COC[C@H](NC(=O)c1cnc(C)s1)C(=O)N[C@@H](COC)C(=O)N[C@@H](Cc1ccccc1)C(=O)[C@@]1(C)CO1 [oprozomib],patients who experience diarrhea,,Nearly all patients
CC(C)C[C@H](NC(=O)CNC(=O)c1cc(Cl)ccc1Cl)B(O)O [ixazomib],incidence of decreased platelet counts,,43%
same,"peripheral neuropathy, any grade",patients,27%
same,"peripheral neuropathy, grade 3",patients,2%
same,incidence of diarrhea,phase 1 study in RRMM,38%
same,incidence of grade ≥3 diarrhea,phase 1 study in RRMM,17%
same,incidence of peripheral neuropathy,phase 1 study in RRMM,20%
same,rate of grade ≥3 AEs,phase 1 study in RRMM,53%
same,incidence of diarrhea,real-world settings,26.2%
same,incidence of peripheral neuropathy,real-world settings,35%
same,incidence of ≥grade 3 diarrhea,real-world settings,13.9%
same,incidence of ≥grade 3 peripheral neuropathy,real-world settings,3%
same,participants who discontinued due to AEs,study by Kumar et al.,12%
same,DCR,multiple myeloma; monotherapy,50%
same,T max,[1],1 to 1.5 h
same,half-life,[1],140 to 150 h
